Measured values: PMC9848257, “Design and synthesis of novel rigid dibenzo[b,f]azepines through ring closure technique as promising anticancer candidates against leukaemia and acting as selective topoisomerase II inhibitors and DNA intercalators” (Journal of Enzyme Inhibition and Medicinal Chemistry, 2023)

How the values were obtained:
Type in all cases: cell-based
[1] = test system: CCRF-CEM; test: NCI-60 one-dose screen, CCRF-CEM; settings: Homo sapiens, leukaemia, single dose 10 μM, read-out: Growth inhibition %
Experimental: (§1) Anti-proliferative effects of the counterparts 4a–g and 5a–g were screened against 60 human cancer cell lines, following the Developmental Therapeutics Program protocol, National Cancer Institute[35].
(§2) The anti-tumour activity of the fourteen synthesised congeners was investigated at the NCI against a panel of 60 cancer cell lines (NCI-60 Cell One-Dose Screen). The tested dibenzo[b,f]azepine derivatives were screened at a single dose level (10 μM), Table 1.

[2] = test system: HL-60(TB); test: NCI-60 one-dose screen, HL-60(TB); settings: Homo sapiens, leukaemia, single dose 10 μM, read-out: Growth inhibition %
Experimental: as §1, §2

[3] = test system: RPMI-8226; test: NCI-60 one-dose screen, RPMI-8226; settings: Homo sapiens; RPMI-8226, leukaemia; single dose 10 μM; read-out: Growth inhibition %
Experimental: as §1, §2

[4] = test system: SR; test: NCI-60 one-dose screen, SR; settings: Homo sapiens, leukaemia, single dose 10 μM, read-out: Growth inhibition %
Experimental: as §1, §2

[5] = test system: A549-ATCC; test: NCI-60 one-dose screen, A549-ATCC; settings: Homo sapiens, non-small cell lung cancer, single dose 10 μM, read-out: Growth inhibition %
Experimental: as §1, §2

[6] = test system: EKVX; test: NCI-60 one-dose screen, EKVX; settings: Homo sapiens, non-small cell lung cancer, single dose 10 μM, read-out: Growth inhibition %
Experimental: as §1, §2

[7] = test system: HOP-62; test: NCI-60 one-dose screen, HOP-62; settings: Homo sapiens; HOP-62, non-small cell lung cancer; single dose 10 μM; read-out: Growth inhibition %
Experimental: as §1, §2

[8] = test system: HOP-92; test: NCI-60 one-dose screen, HOP-92; settings: Homo sapiens; HOP-92, non-small cell lung cancer; single dose 10 μM; read-out: Growth inhibition %
Experimental: as §1, §2

[9] = test system: NCI-H23; test: NCI-60 one-dose screen, NCI-H23; settings: Homo sapiens; NCI-H23, non-small cell lung cancer; single dose 10 μM; read-out: Growth inhibition %
Experimental: as §1, §2

[10] = test system: NCI-H460; test: NCI-60 one-dose screen, NCI-H460; settings: Homo sapiens; NCI-H460, non-small cell lung cancer; single dose 10 μM; read-out: Growth inhibition %
Experimental: as §1, §2

[11] = test system: NCI-H522; test: NCI-60 one-dose screen, NCI-H522; settings: Homo sapiens; NCI-H522, non-small cell lung cancer; single dose 10 μM; read-out: Growth inhibition %
Experimental: as §1, §2

[12] = test system: COLO 205; test: NCI-60 one-dose screen, COLO 205; settings: Homo sapiens; COLO 205, colon cancer; single dose 10 μM; read-out: Growth inhibition %
Experimental: as §1, §2

[13] = test system: HCC-2998; test: NCI-60 one-dose screen, HCC-2998; settings: Homo sapiens; HCC-2998, colon cancer; single dose 10 μM; read-out: Growth inhibition %
Experimental: as §1, §2

[14] = test system: HCT-15; test: NCI-60 one-dose screen, HCT-15; settings: Homo sapiens; HCT-15, colon cancer; single dose 10 μM; read-out: Growth inhibition %
Experimental: as §1, §2

[15] = test system: HT29; test: NCI-60 one-dose screen, HT29; settings: Homo sapiens, HT-29; HT29, colon cancer; single dose 10 μM; read-out: Growth inhibition %
Experimental: as §1, §2

[16] = test system: KM12; test: NCI-60 one-dose screen, KM12; settings: Homo sapiens; KM12, colon cancer; single dose 10 μM; read-out: Growth inhibition %
Experimental: as §1, §2

[17] = test system: SF-268; test: NCI-60 one-dose screen, SF-268; settings: Homo sapiens; SF-268, CNS cancer; single dose 10 μM; read-out: Growth inhibition %
Experimental: as §1, §2

[18] = test system: SNB-19; test: NCI-60 one-dose screen, SNB-19; settings: Homo sapiens; SNB-19, CNS cancer; single dose 10 μM; read-out: Growth inhibition %
Experimental: as §1, §2

[19] = test system: U251; test: NCI-60 one-dose screen, U251; settings: Homo sapiens, U-251; U251, CNS cancer; single dose 10 μM; read-out: Growth inhibition %
Experimental: as §1, §2

[20] = test system: LOX IMVI; test: NCI-60 one-dose screen, LOX IMVI; settings: Homo sapiens, melanoma, single dose 10 μM, read-out: Growth inhibition %
Experimental: as §1, §2

[21] = test system: MALME-3M; test: NCI-60 one-dose screen, MALME-3M; settings: Homo sapiens, melanoma, single dose 10 μM, read-out: Growth inhibition %
Experimental: as §1, §2

[22] = test system: MDA-MB-435; test: NCI-60 one-dose screen, MDA-MB-435; settings: Homo sapiens; MDA-MB-435, melanoma; single dose 10 μM; read-out: Growth inhibition %
Experimental: as §1, §2

[23] = test system: SK-MEL-5; test: NCI-60 one-dose screen, SK-MEL-5; settings: Homo sapiens; SK-MEL-5, melanoma; single dose 10 μM; read-out: Growth inhibition %
Experimental: as §1, §2

[24] = test system: UACC-257; test: NCI-60 one-dose screen, UACC-257; settings: Homo sapiens; UACC-257, melanoma; single dose 10 μM; read-out: Growth inhibition %
Experimental: as §1, §2

[25] = test system: UACC-62; test: NCI-60 one-dose screen, UACC-62; settings: Homo sapiens; UACC-62, melanoma; single dose 10 μM; read-out: Growth inhibition %
Experimental: as §1, §2

[26] = test system: OVCAR-3; test: NCI-60 one-dose screen, OVCAR-3; settings: Homo sapiens; OVCAR-3, ovarian cancer; single dose 10 μM; read-out: Growth inhibition %
Experimental: as §1, §2

[27] = test system: OVCAR-4; test: NCI-60 one-dose screen, OVCAR-4; settings: Homo sapiens; OVCAR-4, ovarian cancer; single dose 10 μM; read-out: Growth inhibition %
Experimental: as §1, §2

[28] = test system: OVCAR-8; test: NCI-60 one-dose screen, OVCAR-8; settings: Homo sapiens; OVCAR-8, ovarian cancer; single dose 10 μM; read-out: Growth inhibition %
Experimental: as §1, §2

[29] = test system: A498; test: NCI-60 one-dose screen, A498; settings: Homo sapiens; A498, renal cancer; single dose 10 μM; read-out: Growth inhibition %
Experimental: as §1, §2

[30] = test system: ACHN; test: NCI-60 one-dose screen, ACHN; settings: Homo sapiens, renal cancer, single dose 10 μM, read-out: Growth inhibition %
Experimental: as §1, §2

[31] = test system: CAKI-1; test: NCI-60 one-dose screen, CAKI-1; settings: Homo sapiens; CAKI-1, renal cancer; single dose 10 μM; read-out: Growth inhibition %
Experimental: as §1, §2

[32] = test system: SN12C; test: NCI-60 one-dose screen, SN12C; settings: Homo sapiens, renal cancer, single dose 10 μM, read-out: Growth inhibition %
Experimental: as §1, §2

[33] = test system: DU-145; test: NCI-60 one-dose screen, DU-145; settings: Homo sapiens; DU-145, prostate cancer; single dose 10 μM; read-out: Growth inhibition %
Experimental: as §1, §2

[34] = test system: HS 578 T; test: NCI-60 one-dose screen, HS 578 T; settings: Homo sapiens, breast cancer, single dose 10 μM, read-out: Growth inhibition %
Experimental: as §1, §2

[35] = test system: T-47D; test: NCI-60 one-dose screen, T-47D; settings: Homo sapiens, T47D, breast cancer, single dose 10 μM, read-out: Growth inhibition %
Experimental: as §1, §2

SMILES | inhibition at 10 µM [1] [%] | inhibition at 10 µM [2] [%] | inhibition at 10 µM [3] [%] | inhibition at 10 µM [4] [%] | inhibition at 10 µM [5] [%] | inhibition at 10 µM [6] [%] | inhibition at 10 µM [7] [%] | inhibition at 10 µM [8] [%] | inhibition at 10 µM [9] [%] | inhibition at 10 µM [10] [%] | inhibition at 10 µM [11] [%] | inhibition at 10 µM [12] [%] | inhibition at 10 µM [13] [%] | inhibition at 10 µM [14] [%] | inhibition at 10 µM [15] [%] | inhibition at 10 µM [16] [%] | inhibition at 10 µM [17] [%] | inhibition at 10 µM [18] [%] | inhibition at 10 µM [19] [%] | inhibition at 10 µM [20] [%] | also measured
O=C(NNC(=O)N1c2ccccc2C=Cc2ccccc21)c1ccc2ccccc2c1 [Compound 4f, N′-(2-Naphthoyl)-5H-dibenzo[b,f]azepine-5-carbohydrazide] | < 10 | 10 | < 10 | 12.8 | < 10 | 11 | < 10 | 18.6 | < 10 | < 10 | 14.1 | < 10 | < 10 | < 10 | 11.4 | < 10 | < 10 | < 10 | < 10 | < 10 | inhibition at 10 µM [21]: < 10%; inhibition at 10 µM [22]: < 10%; inhibition at 10 µM [23]: < 10%; inhibition at 10 µM [24]: < 10%; inhibition at 10 µM [25]: 18.9%; inhibition at 10 µM [26]: < 10%; inhibition at 10 µM [27]: < 10%; inhibition at 10 µM [28]: < 10%; inhibition at 10 µM [29]: < 10%; inhibition at 10 µM [30]: < 10%; inhibition at 10 µM [31]: < 10%; inhibition at 10 µM [32]: < 10%; inhibition at 10 µM [33]: < 10%; inhibition at 10 µM [34]: < 10%; inhibition at 10 µM [35]: 12.6%
O=C(Cc1ccccc1)NNC(=O)N1c2ccccc2C=Cc2ccccc21 [Compound 4g, N′-(2-Phenylacetyl)-5H-dibenzo[b,f]azepine-5-carbohydrazide] | < 10 | < 10 | < 10 | < 10 | < 10 | 13.8 | < 10 | < 10 | < 10 | < 10 | < 10 | < 10 | < 10 | < 10 | < 10 | < 10 | < 10 | < 10 | < 10 | < 10 | inhibition at 10 µM [21]: < 10%; inhibition at 10 µM [22]: < 10%; inhibition at 10 µM [23]: < 10%; inhibition at 10 µM [24]: < 10%; inhibition at 10 µM [25]: < 10%; inhibition at 10 µM [26]: < 10%; inhibition at 10 µM [27]: < 10%; inhibition at 10 µM [28]: < 10%; inhibition at 10 µM [29]: < 10%; inhibition at 10 µM [30]: < 10%; inhibition at 10 µM [31]: < 10%; inhibition at 10 µM [32]: < 10%; inhibition at 10 µM [33]: < 10%; inhibition at 10 µM [34]: < 10%; inhibition at 10 µM [35]: < 10%
C1=Cc2ccccc2N(c2nnc(-c3ccccc3)o2)c2ccccc21 [Compound 5a, 2-(5 h-Dibenzo[b,f]azepin-5-yl)-5-phenyl-1,3,4-oxadiazole] | 26.1 | 13.2 | 67.7 | < 10 | < 10 | < 10 | 15.3 | 18.3 | < 10 | < 10 | < 10 | < 10 | 33.4 | < 10 | < 10 | < 10 | < 10 | 33.2 | 20.1 | < 10 | inhibition at 10 µM [21]: < 10%; inhibition at 10 µM [22]: < 10%; inhibition at 10 µM [23]: < 10%; inhibition at 10 µM [24]: 13.6%; inhibition at 10 µM [25]: < 10%; inhibition at 10 µM [26]: < 10%; inhibition at 10 µM [27]: < 10%; inhibition at 10 µM [28]: < 10%; inhibition at 10 µM [29]: < 10%; inhibition at 10 µM [30]: 16.7%; inhibition at 10 µM [31]: < 10%; inhibition at 10 µM [32]: < 10%; inhibition at 10 µM [33]: 12.4%; inhibition at 10 µM [34]: < 10%; inhibition at 10 µM [35]: < 10%
